Experiment: Cone/Plate Viscosity Measurement
Assay type: physicochemical
Conditions: composition such as C. Ex. 1; thickener level not stated
Protocol: The viscosity of the personal cleansing composition is measured by a Cone/Plate Brookfield DV12T, by Brookfield Engineering Laboratories, Stoughton, MA. The cone used (Spindle CPA-41z) has a diameter of […] and 3° angle. The viscosity is determined using a steady state flow experiment at constant shear rate of 2 s^−1 and at temperature of 26.5° C. The sample size is 2.5 mL.

Effect of a thickener on enhancing the viscosity of a personal cleansing composition: good response
Substance: cocamide MEA

Reference: patent publication US20230329993A1, “PERSONAL CLEANSING COMPOSITION FREE OF ALKYL SULFATE OR ALKYL ETHER SULFATE TYPE OF SURFACTANTS” (The Procter & Gamble Company, priority 2022, published 2023)
